From patent US11478552B2, “Hybrid carriers for nucleic acid cargo” (CureVac AG, priority 2016, dated 2022)

What was measured:
HepG2 cells = test: Transfection of HepG2 cells with GpLuc mRNA, luminescence of supernatant (Example 3); type: cell-based; details: small amounts of lipidoid added to PB83, GpLuc mRNA, 24 h post transfection
Method: For luminescence analysis, a volume of 10 μL supernatant was transferred to a 96 well plate for GpLuc measurement. Then, coelenterazine working solution (100 μM) was prepared (1 mL coelenterazine stock solution (4.72 mM in EtOH) in 49 mL phosphate buffered saline supplemented with 5 mM NaCl, pH 7.2). A volume of 100 μL coelenterazine working solution was used as a substrate for GpLuc and measured after 5 seconds in a commercially available microplate reader.
The experiments were conducted as described in the previous Example, except that HepG2 cells were transfected instead of Sol8 cells. A volume of 0.2 mL HepG2 cells (10.000 cells) were seeded in a 96 well tissue culture plate. After removing the medium from each well, 100 μL RPMI 1640 medium (with 1% Penicillin and 1% Streptomycin, 1% L-Glutamin) was added to each well. Afterwards, HepG2 cells were transfected with 100 μL transfection mix (in triplicates) of polymer-lipidoid mRNA complexes and respective controls (in triplicates), and cells were incubated at 37° C. and 5% CO2 for 90 minutes. After incubation, 150 μL medium was exchanged with 150 μL fresh RPMI 1640 medium supplemented with 10% fetal calf serum. Twenty-four hours post transfection, 10 μL of supernatant of each well was extracted and used for further luminescence analysis.

[1] = test system: differentiated Sol8 cells; test: Transfection of Sol8 muscle cells with GpLuc mRNA, luminescence of supernatant (Example 2); type: cell-based, C3H mouse; details: small amounts of lipidoid added to PB83, GpLuc mRNA (SEQ ID NO: 12), 24 h post transfection
Method: Sol8 is a myogenic cell line isolated by Daubas et al. from primary cultures of soleus muscle taken from the leg of a normal C3H mouse. A volume of 0.2 mL Sol8 cells (20.000 cells) were seeded in 96 well glass bottom plates (Softwell Hydrogel coated with collagen, elasticity E=12 kPa) on day 1. After removing the medium from each well, 100 μL DMEM medium (with 2% horse serum) was added to each well. Afterwards, on day 2, Sol8 cells were transfected with 100 μL transfection mix (in triplicates) of polymer-lipidoid complexes prepared according to Example 1) and respective controls (in triplicates), and cells were incubated at 37° C. and 5% CO2 for 120 minutes. After incubation, 150 μL medium was exchanged with 150 μL fresh DMEM medium supplemented with 10% fetal calf serum. Twenty-four hours post transfection, i.e. on day 3, 10 μL of supernatant of each well was extracted and used for further luminescence analysis, which was performed as described below. […]
For luminescence analysis, a volume of 10 μL supernatant was transferred to a 96 well plate for GpLuc measurement. […] A volume of 100 μL coelenterazine working solution was used as a substrate for GpLuc and measured after 5 seconds in a commercially available microplate reader.

SMILES	transfection efficiency (GpLuc luminescence) (HepG2 cells)	transfection efficiency (GpLuc luminescence) [1]
CCCCCCCCCCC(O)C[N+](C)(C)CCN(CC[N+](C)(C)CC(O)CCCCCCCCCC)CC[N+](C)(C)CC(O)CCCCCCCCCC (centres unmarked) [3-C12-OH-cat]	profound increase of transfection efficiency	–
CCCCCCCCCCC(O)CNCCN(CCNCC(O)CCCCCCCCCC)CCNCC(O)CCCCCCCCCC (centres unmarked) [3-C12-OH]	profound increase of transfection efficiency	profound increase of transfection efficiency
CCCCCCCCCCCCNCCN(CCNCCCCCCCCCCCC)CCNCCCCCCCCCCCC [3-C12]	profound increase of transfection efficiency	profound increase of transfection efficiency
